Series [1] has as its system KG-1a. Description: Inhibition of cell proliferation in human KG1a cells assessed as reduction in cell number by trypan blue exclusion based assay. Format: functional.
Series [2] has as its system KG-1a. Description: Inhibition of cell proliferation in human KG1a cells assessed as reduction in cell number by MTT assay. The format is functional, cell-based. (Formazan colour is commonly taken as a measure of viable cells.)
A short description of series [3]: Toxicity in athymic nude-Foxn1nu mouse assessed as effect on spleen at 100 mg/kg/day, ip for 7 days by H and E staining based histo-pathological analysis. Format: organism-based. The note with it: in vivo, 168 h.
Series [4] in a line: Toxicity in athymic nude-Foxn1nu mouse assessed as effect on liver at 100 mg/kg/day, ip for 7 days by H and E staining based histo-pathological analysis. The note with it: in vivo, 168 h. Format: organism-based.
Series [5] is described as follows: Antiproliferative activity against human PIG1 cells assessed as reduction in cell number up to 40 uM by trypan blue exclusion based assay.
The nature of series [6]: Toxicity in athymic nude-Foxn1nu mouse assessed as effect on complete blood counts at 100 mg/kg/day, ip for 7 days. The note with it: in vivo, 168 h. The format is organism-based.
In another series the test system is PBMC. Description: Antiproliferative activity against PBMC from healthy human assessed as reduction in cell viability at 10 to 20 uM by MTT assay. The format is cell-based.
Series [7] in a line: Toxicity in ip dosed athymic nude-Foxn1nu mouse dosed for 4 weeks assessed as well-tolerated dose level. As to conditions: in vivo, 672 h. Format: organism-based.
A short description of series [8]: Toxicity in athymic nude-Foxn1nu mouse assessed as effect on lung at 100 mg/kg/day, ip for 7 days by H and E staining based histo-pathological analysis. Format: organism-based. The note with it: in vivo, 168 h.
Series [9] can be described thus: Toxicity in athymic nude-Foxn1nu mouse assessed as effect on kidney at 100 mg/kg/day, ip for 7 days by H and E staining based histo-pathological analysis. The format is organism-based. The note with it: in vivo, 168 h.
A short description of series [10]: Toxicity in athymic nude-Foxn1nu mouse assessed as effect on body weight at 100 mg/kg/day, ip for 7 days. The format is organism-based. As to conditions: in vivo, 168 h.
For another series, the system named is HFF. Description: Antiproliferative activity against HFF cells assessed as reduction in cell number up to 40 uM by trypan blue exclusion based assay. The note with it: human.
For a further series, the system named is HaCaT. Description: Antiproliferative activity against human HaCaT cells assessed as reduction in cell number up to 40 uM by trypan blue exclusion based assay.
Another series relates to NCI-H1299. Description: Inhibition of cell proliferation in human NCI-H1299 cells assessed as reduction in cell number by MTT assay. The format is functional, cell-based.
Series [11] in a line: Toxicity in athymic nude-Foxn1nu mouse assessed as effect on hematopoietic parameters at 100 mg/kg/day, ip for 7 days. The note with it: in vivo, 168 h. The format is organism-based.
The nature of series [12]: Antiproliferative activity against CD34-positive blood stem/progenitor cells from healthy human assessed as reduction in cell viability at 20 uM by trypan blue exclusion based assay.
The test system of a further series is NHDF. Description: Antiproliferative activity against NHDF cells assessed as reduction in cell number up to 40 uM by trypan blue exclusion based assay. The note with it: human.
Series [13] can be described thus: Inhibition of cell proliferation in human Tu212LN cells assessed as reduction in cell number by MTT assay. The format is functional, cell-based.

Each structure is given as a SMILES string.

For the compound `O=C1c2ccccc2C(=O)c2c1ccc(O)c2O` [ATHRAQUINONES A], the IC50 turned out to be 58.6 µM with KG-1a [1] and 60.2 µM in the series on KG-1a [2].
As for `O=C1c2ccccc2C(=O)c2c1cc(S(=O)(=O)Nc1ccc(C(F)(F)F)cc1)c(O)c2O`, the Activity result in series [3] is given as “Non-Toxic”; in [4], “Non-Toxic”; in series [5], “Non-Toxic”; in [6], “Non-Toxic”; in the series with PBMC, “Non-Toxic”; in [7], 100 mg/kg/day. For the same compound, the Activity result (in series [8]; in series [9]; in series [10]; in the series on HFF; in the series with HaCaT; in series [11]) was “Non-Toxic” throughout. Moreover, the Activity entry (in series [12]; with NHDF) was “Non-Toxic” each time. Also, the IC50 is 17.1 µM with KG-1a [2], 25.6 µM with NCI-H1299 and 26.5 µM in series [13].

Usually IC50 stands for the concentration needed to halve the response being measured.

For the origin of these results see ChEMBL document CHEMBL4420063, “Pgam1 inhibitors and methods related thereto” (2014).
